Test results taken from paper PMC7054317, “Mammalian ALKBH1 serves as an N^6-mA demethylase of unpairing DNA” (Cell Research, 2020).
pKd: −log10 of the molar value.

Columns and labels:
ALKBH1_1–359 (mouse) = target: T1, ALKBH1_1–359 (mouse) (Mus musculus, UniProt P0CB42); experiment: isothermal titration calorimetry; type: binding
T1 construct: gene Alkbh1; C-terminally truncated, residues 1-359, His-tag removed with PreScission protease, E. coli BL21(DE3); residues 20-358 modelled in the crystal
T1 sequence (P0CB42 1-359): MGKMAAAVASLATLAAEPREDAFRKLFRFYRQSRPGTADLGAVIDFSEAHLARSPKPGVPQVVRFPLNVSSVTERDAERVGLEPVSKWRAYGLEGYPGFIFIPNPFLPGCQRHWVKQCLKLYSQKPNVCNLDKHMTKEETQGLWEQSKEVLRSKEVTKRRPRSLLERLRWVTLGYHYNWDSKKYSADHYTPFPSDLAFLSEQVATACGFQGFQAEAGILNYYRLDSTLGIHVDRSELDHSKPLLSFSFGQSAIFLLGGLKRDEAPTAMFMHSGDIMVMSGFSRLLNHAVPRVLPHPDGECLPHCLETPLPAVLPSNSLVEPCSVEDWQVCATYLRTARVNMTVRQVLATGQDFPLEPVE

[1] = target: T2, ALKBH1 in full length (mouse) (Mus musculus, UniProt P0CB42); experiment: isothermal titration calorimetry; type: binding
T2 construct: full length, residues 1-389, N-terminal His-tag retained, E. coli BL21(DE3), modified pRSFDuet-1
T2 sequence (P0CB42 1-389): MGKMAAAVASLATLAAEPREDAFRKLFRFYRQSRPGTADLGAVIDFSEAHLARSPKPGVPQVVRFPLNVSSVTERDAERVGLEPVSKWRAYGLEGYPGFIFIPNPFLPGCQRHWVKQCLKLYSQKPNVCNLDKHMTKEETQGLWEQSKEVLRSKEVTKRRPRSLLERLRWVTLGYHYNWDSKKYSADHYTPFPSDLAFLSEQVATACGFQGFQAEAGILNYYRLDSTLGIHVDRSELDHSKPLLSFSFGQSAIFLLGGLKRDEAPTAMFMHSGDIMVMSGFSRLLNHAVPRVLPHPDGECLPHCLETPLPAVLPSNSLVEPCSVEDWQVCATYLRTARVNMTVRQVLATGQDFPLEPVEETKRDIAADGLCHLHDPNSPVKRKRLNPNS

- pKd (ALKBH1_1–359 (mouse)): 5.60
- pKd [1]: 5.74
SMILES: O=C(O)CNC(=O)C(=O)O [NOG]
